In patent US8987262B2, “Use of a beta blocker for the manufacture of a medicament for the treatment of hemangiomas” (Universite de Bordeaux, priority 2007, dated 2015):
Read-outs that look alike come from different tables or passages of the source.

Experiments:
[1] = test system: infantile capillary hemangiomas (IH); test: Treatment of infants with infantile hemangioma (case reports, Examples 1-3)
subglottic hemangioma = details: cited from earlier work
cleaved caspase-3 and 8 = test: Immuno-histochemical analysis of IH biopsy with anti-cleaved caspase-3 and 8 antibodies; parameters: species or system human; details: Example 2, arm biopsy at 3 months of age
Experimental: Prednisolone treatment was progressively tapered down while the IH continued to improve. At 3 months of age a biopsy sample was obtained on the arm, showing a typical IH.
Reintroduction of propranolol treatment at 2 mg/kg/day was successful after only 24 hours.

infantile hemangiomas = details: cited from earlier work
HIF-1alpha and VEGF = details: pressure-overloaded rat heart; cited from earlier work
head and neck IH = details: oral suspension up to 4 mg/kg/day, 24 weeks; cited from earlier work
IH = details: in vivo; cited from earlier work
[2] = Case 4, 3 mg/kg/day, stenosis at referral 90%
[3] = Case 1, 8 mg/kg/day, stenosis at referral 90%
[4] = Case 2, 8 mg/kg/day, stenosis at referral 70%
[5] = Case 3, 8 mg/kg/day, stenosis at referral 90%

CC(C)NCC(O)COc1cccc2ccccc12 (racemic) [propranolol]
change of the hemangioma after onset of treatment ([1]; Example 1, baby, nasal pyramid IH, 3 mg/kg/day, the day after onset): changed in color from intense red to purple, and softened | aspect of the IH ([1]; Example 1, still under propranolol): completely flat | parotidal and axillary subcutaneous hemangiomatous components ([1]; Example 2, 2 mg/kg/d): not palpable | time to softening of the lesions after onset ([1]; Example 2, 2 mg/kg/day): 12 h | time to success after reintroduction of treatment ([1]; Example 2, 2 mg/kg/day): 24 h | change in size of hemangioma ([1]; Example 2, 2 mg/kg/day, seven days after onset): dramatic reduction in size of the subcutaneous component of the hemangioma | effect of treatment interruption ([1]; Example 2, 3-day interruption, superior eyelid and parotidal areas): mild increase in size of the hemangioma | outcome after treatment stopped ([1]; Example 2, stopped): without any re-growth of the IH | hemodynamic modifications ([1]; Example 3, 7 days after onset, 2 mg/kg/day): without any hemodynamic modifications | IH thickness (ultrasonography) ([1]; Example 3, 7 days after onset, versus 12 mm before): 6 mm | IH diameter (ultrasonography) ([1]; Example 3, 7 days after onset, versus 32 mm before): 21 mm | time to flattening of the lesion ([1]; Example 3, periocular IH, 2 mg/kg/day): 12 h | outcome after treatment stopped ([1]; Example 3, stopped after one month): novel increase in size of the IH | outcome after treatment stopped ([1]; Example 3, stopped at 8 months): without any rebound of the hemangioma | aspect of the IH ([1]; Example 3, treatment resumed): flat and had faded in color | treatment failure ([1]; all treated children (Examples 1-3 and seven other)): No treatment failure | Beta-blocker efficiency (subglottic hemangioma; [2]): success | Laryngeal stenosis during beta-blocker treatment (%) (subglottic hemangioma; [2]): 5% | cleaved caspase-3 and 8 immunostaining (proapoptotic role) (cleaved caspase-3 and 8): did not demonstrate positive immunostaining

CCCC(=O)Nc1ccc(OCC(O)CNC(C)C)c(C(C)=O)c1 (centres unmarked) [Acebutolol]
overall result of study (subglottic hemangioma; 8 mg/kg/day): able to treat hemangiomas | Beta-blocker efficiency (subglottic hemangioma; [3]): Failure | Laryngeal stenosis during beta-blocker treatment (%) (subglottic hemangioma; [3]): 90% | Beta-blocker efficiency (subglottic hemangioma; [4]): success | Laryngeal stenosis during beta-blocker treatment (%) (subglottic hemangioma; [4]): 10% | Beta-blocker efficiency (subglottic hemangioma; [5]): success | Laryngeal stenosis during beta-blocker treatment (%) (subglottic hemangioma; [5]): 5%

CC(C)(C)NC[C@H](O)COc1nsnc1N1CCOCC1 [Timolol, timolol]
Mean VAS ± Standard deviation (infantile hemangiomas; Age at treatment inititation (mos) <6): 45 ± 27 | Mean VAS ± Standard deviation (infantile hemangiomas; Age at treatment inititation (mos) >6): 47 ± 30 | Mean VAS ± Standard deviation (infantile hemangiomas; Depth of hemangioma: Deep): 32 ± 28 | Mean VAS ± Standard deviation (infantile hemangiomas; Depth of hemangioma: Superficial): 53 ± 29 | Mean VAS ± Standard deviation (infantile hemangiomas; Location: Facial): 45 ± 29 | Mean VAS ± Standard deviation (infantile hemangiomas; Location: Nonfacial): 43 ± 32 | Mean VAS ± Standard deviation (infantile hemangiomas; Timolol concentration (%) 0.1): 24 ± 29 | Mean VAS ± Standard deviation (infantile hemangiomas; Timolol concentration (%) 0.5): 48 ± 28 | Mean VAS ± Standard deviation (infantile hemangiomas; Treatment duration (mos) <3): 38 ± 28 | Mean VAS ± Standard deviation (infantile hemangiomas; Treatment duration (mos) >3): 52 ± 30 | overall result of study (infantile hemangiomas; timolol maleate 0.1% or 0.5% gel-forming solution): able to treat hemangiomas

C[C@H]1C[C@H]2[C@@H]3CCC4=CC(=O)C=C[C@]4(C)[C@@]3(F)[C@@H](O)C[C@]2(C)[C@@]1(O)C(=O)CO [betamethasone]
cardiac sonography finding ([1]; Example 1, under systemic steroid): obstructive hypertrophic myocardiopathy

COc1ccccc1OCCNCC(O)COc1cccc2[nH]c3ccccc3c12 (centres unmarked) [cardivedilol]
effect on HIF-1alpha and VEGF protein and mRNA (HIF-1alpha and VEGF): reverses both protein and mRNA of HIF-1alpha and VEGF to the baseline values

CC(C)(C)NCC(O)COc1cccc2c1CC(O)C(O)C2 (centres unmarked) [nadolol]
overall result of study (head and neck IH): able to treat efficiently hemangiomas

C[C@]12C=CC(=O)C=C1CC[C@@H]1[C@@H]2[C@@H](O)C[C@@]2(C)[C@H]1CC[C@]2(O)C(=O)CO [prednisolone]
effect on hemangioma ([1]; Example 1, one-month treatment at 3 mg/kg/day): stabilized, but nasal necrosis progressed | effect on IH ([1]; Example 2, 3 mg/kg/day 2 weeks then 5 mg/kg/day 2 weeks): continued to enlarge | CS efficiency (subglottic hemangioma; Case 1, before beta-blocker treatment, (2 mg/kg/day)): CS-persistant | CS efficiency (subglottic hemangioma; Case 2, before beta-blocker treatment, (1 mg/kg/day)): CS-dependent | CS efficiency (subglottic hemangioma; Case 3, before beta-blocker treatment, (1 mg/kg/day)): CS-dependent | CS efficiency (subglottic hemangioma; Case 4, before beta-blocker treatment, (1.5 mg/kg/day)): CS-dependent

CC[C@]1(O)C[C@H]2CN(CCc3c([nH]c4ccccc34)[C@@](C(=O)OC)(c3cc4c(cc3OC)N(C=O)[C@H]3[C@@](O)(C(=O)OC)[C@H](OC(C)=O)[C@]5(CC)C=CCN6CC[C@]43[C@@H]65)C2)C1 [vincristine]
well-known downsides (IH): peripheral neuropathy, constipation, and hematologic toxicity
